# According to PMC8037182, “Solvothermal Synthesis of Multiple Dihydropyrimidinones at a Time as Inhibitors of Eg5” (Molecules, 2021):
# Key:
# T24 cell line = assay: Cytotoxicity MTS assay, T24 cell line; assay type: cell-based; details: for OD490 Mean / OD490 Well 1 / OD490 Well 2 / OD490 Well 3: T24 cell line;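 as to OD490 Mean: blank control wells received 0.025% DMSO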;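 as to OD490 Well 1: blank control wells received 0.025% DMSO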;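 as to OD490 Well 2: blank control wells received 0.025% DMSO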;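 as to OD490 Well 3: blank control wells received 0.025% DMSO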
# Procedure, shortened: (§1)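 Cells were seeded at 1000 per well, allowed 24 h, then exposed to compounds at final concentrations of 0.5 to 100 µM for 24 h, with 0.025% DMSO as blank. MTS reagent was added for 2 h at 37 °C and absorbance read at 490 nm. IC50 came from non-linear regression of viability against concentration.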
# L929 cell line = assay: Cytotoxicity MTS assay, L929 cell line; assay type: cell-based; details: for OD490 values, Mean / OD490 values, Well 1 / OD490 values, Well 2 / OD490 values, Well 3: L929 cell line
# Procedure, shortened: as §1
smiles,measurement,setting,value
CCOC(=O)c1c(C2NC(=O)NC(C)=C2C(=O)Nc2ccccc2OC)[nH]c(C(=O)OC)c1C (centres unmarked) [D1],IC50,"T24 cell line; MTS assay, 24 h exposure",130 µM
same,OD490 Mean,"T24 cell line; 0.5μM, first assay",1.7953
same,OD490 Well 1,"T24 cell line; 0.5μM, first assay",1.9580
same,OD490 Well 2,"T24 cell line; 0.5μM, first assay",1.8859
same,OD490 Well 3,"T24 cell line; 0.5μM, first assay",1.5421
same,OD490 Mean,"T24 cell line; 0.5μM, second assay",1.6618
same,OD490 Well 1,"T24 cell line; 0.5μM, second assay",1.6321
same,OD490 Well 2,"T24 cell line; 0.5μM, second assay",1.6547
same,OD490 Well 3,"T24 cell line; 0.5μM, second assay",1.6987
same,OD490 Mean,"T24 cell line; 0.5μM, third assay",1.6883
same,OD490 Well 1,"T24 cell line; 0.5μM, third assay",1.6325
same,OD490 Well 2,"T24 cell line; 0.5μM, third assay",1.6625
same,OD490 Well 3,"T24 cell line; 0.5μM, third assay",1.7698
same,OD490 Mean,"T24 cell line; 1μM, first assay",1.8122
same,OD490 Well 1,"T24 cell line; 1μM, first assay",1.9288
same,OD490 Well 2,"T24 cell line; 1μM, first assay",1.8729
same,OD490 Well 3,"T24 cell line; 1μM, first assay",1.6348
same,OD490 Mean,"T24 cell line; 1μM, second assay",1.5761
same,OD490 Well 1,"T24 cell line; 1μM, second assay",1.5621
same,OD490 Well 2,"T24 cell line; 1μM, second assay",1.7412
same,OD490 Well 3,"T24 cell line; 1μM, second assay",1.4251
same,OD490 Mean,"T24 cell line; 1μM, third assay",1.7342
same,OD490 Well 1,"T24 cell line; 1μM, third assay",1.7236
same,OD490 Well 2,"T24 cell line; 1μM, third assay",1.7425
same,OD490 Well 3,"T24 cell line; 1μM, third assay",1.7365
same,OD490 Mean,"T24 cell line; 10μM, first assay",1.8792
same,OD490 Well 1,"T24 cell line; 10μM, first assay",2.1723
same,OD490 Well 2,"T24 cell line; 10μM, first assay",1.7790
same,OD490 Well 3,"T24 cell line; 10μM, first assay",1.6864
same,OD490 Mean,"T24 cell line; 10μM, second assay",1.7434
same,OD490 Well 1,"T24 cell line; 10μM, second assay",1.9658
same,OD490 Well 2,"T24 cell line; 10μM, second assay",1.6625
same,OD490 Well 3,"T24 cell line; 10μM, second assay",1.6020
same,OD490 Mean,"T24 cell line; 10μM, third assay",1.7548
same,OD490 Well 1,"T24 cell line; 10μM, third assay",1.7768
same,OD490 Well 2,"T24 cell line; 10μM, third assay",1.8524
same,OD490 Well 3,"T24 cell line; 10μM, third assay",1.6352
same,OD490 Mean,"T24 cell line; 25μM, first assay",1.7549
same,OD490 Well 1,"T24 cell line; 25μM, first assay",1.8700
same,OD490 Well 2,"T24 cell line; 25μM, first assay",1.7393
same,OD490 Well 3,"T24 cell line; 25μM, first assay",1.6554
same,OD490 Mean,"T24 cell line; 25μM, second assay",1.7221
same,OD490 Well 1,"T24 cell line; 25μM, second assay",1.6685
same,OD490 Well 2,"T24 cell line; 25μM, second assay",1.7236
same,OD490 Well 3,"T24 cell line; 25μM, second assay",1.7741
same,OD490 Mean,"T24 cell line; 25μM, third assay",1.8268
same,OD490 Well 1,"T24 cell line; 25μM, third assay",1.7747
same,OD490 Well 2,"T24 cell line; 25μM, third assay",1.7535
same,OD490 Well 3,"T24 cell line; 25μM, third assay",1.9522
same,OD490 Mean,"T24 cell line; 50μM, first assay",1.5187
same,OD490 Well 1,"T24 cell line; 50μM, first assay",1.4408
same,OD490 Well 2,"T24 cell line; 50μM, first assay",1.5156
same,OD490 Well 3,"T24 cell line; 50μM, first assay",1.5997
same,OD490 Mean,"T24 cell line; 50μM, second assay",1.5158
same,OD490 Well 1,"T24 cell line; 50μM, second assay",1.5365
same,OD490 Well 2,"T24 cell line; 50μM, second assay",1.5214
same,OD490 Well 3,"T24 cell line; 50μM, second assay",1.4896
same,OD490 Mean,"T24 cell line; 50μM, third assay",1.4458
same,OD490 Well 1,"T24 cell line; 50μM, third assay",1.4214
same,OD490 Well 2,"T24 cell line; 50μM, third assay",1.4823
same,OD490 Well 3,"T24 cell line; 50μM, third assay",1.4336
same,OD490 Mean,"T24 cell line; 100μM, first assay",1.4345
same,OD490 Well 1,"T24 cell line; 100μM, first assay",1.4729
same,OD490 Well 2,"T24 cell line; 100μM, first assay",1.3331
same,OD490 Well 3,"T24 cell line; 100μM, first assay",1.4975
same,OD490 Mean,"T24 cell line; 100μM, second assay",1.3859
same,OD490 Well 1,"T24 cell line; 100μM, second assay",1.3654
same,OD490 Well 2,"T24 cell line; 100μM, second assay",1.5687
same,OD490 Well 3,"T24 cell line; 100μM, second assay",1.2235
same,OD490 Mean,"T24 cell line; 100μM, third assay",1.3345
same,OD490 Well 1,"T24 cell line; 100μM, third assay",1.3553
same,OD490 Well 2,"T24 cell line; 100μM, third assay",1.4058
same,OD490 Well 3,"T24 cell line; 100μM, third assay",1.2423
same,"OD490 values, Mean","L929 cell line; 0.5μM, first assay",1.3706
same,"OD490 values, Well 1","L929 cell line; 0.5μM, first assay",1.4101
same,"OD490 values, Well 2","L929 cell line; 0.5μM, first assay",1.3370
same,"OD490 values, Well 3","L929 cell line; 0.5μM, first assay",1.3648
same,"OD490 values, Mean","L929 cell line; 0.5μM, second assay",1.7900
same,"OD490 values, Well 1","L929 cell line; 0.5μM, second assay",1.7354
same,"OD490 values, Well 2","L929 cell line; 0.5μM, second assay",1.9532
same,"OD490 values, Well 3","L929 cell line; 0.5μM, second assay",1.6814
same,"OD490 values, Mean","L929 cell line; 0.5μM, third assay",1.6902
same,"OD490 values, Well 1","L929 cell line; 0.5μM, third assay",1.6425
same,"OD490 values, Well 2","L929 cell line; 0.5μM, third assay",1.7433
same,"OD490 values, Well 3","L929 cell line; 0.5μM, third assay",1.6847
same,"OD490 values, Mean","L929 cell line; 1μM, first assay",1.3549
same,"OD490 values, Well 1","L929 cell line; 1μM, first assay",1.3334
same,"OD490 values, Well 2","L929 cell line; 1μM, first assay",1.3850
same,"OD490 values, Well 3","L929 cell line; 1μM, first assay",1.3462
same,"OD490 values, Mean","L929 cell line; 1μM, second assay",1.7547
same,"OD490 values, Well 1","L929 cell line; 1μM, second assay",1.7965
same,"OD490 values, Well 2","L929 cell line; 1μM, second assay",1.7320
same,"OD490 values, Well 3","L929 cell line; 1μM, second assay",1.7355
same,"OD490 values, Mean","L929 cell line; 1μM, third assay",1.7249
same,"OD490 values, Well 1","L929 cell line; 1μM, third assay",1.7365
same,"OD490 values, Well 2","L929 cell line; 1μM, third assay",1.7452
same,"OD490 values, Well 3","L929 cell line; 1μM, third assay",1.6930
same,"OD490 values, Mean","L929 cell line; 10μM, first assay",1.3153
same,"OD490 values, Well 1","L929 cell line; 10μM, first assay",1.3870
same,"OD490 values, Well 2","L929 cell line; 10μM, first assay",1.3090
same,"OD490 values, Well 3","L929 cell line; 10μM, first assay",1.2498
same,"OD490 values, Mean","L929 cell line; 10μM, second assay",1.7648
same,"OD490 values, Well 1","L929 cell line; 10μM, second assay",1.6895
same,"OD490 values, Well 2","L929 cell line; 10μM, second assay",1.7985
same,"OD490 values, Well 3","L929 cell line; 10μM, second assay",1.8063
same,"OD490 values, Mean","L929 cell line; 10μM, third assay",1.7158
same,"OD490 values, Well 1","L929 cell line; 10μM, third assay",1.7235
same,"OD490 values, Well 2","L929 cell line; 10μM, third assay",1.7253
same,"OD490 values, Well 3","L929 cell line; 10μM, third assay",1.6985
same,"OD490 values, Mean","L929 cell line; 25μM, first assay",1.2680
same,"OD490 values, Well 1","L929 cell line; 25μM, first assay",1.2444
same,"OD490 values, Well 2","L929 cell line; 25μM, first assay",1.2849
same,"OD490 values, Well 3","L929 cell line; 25μM, first assay",1.2747
same,"OD490 values, Mean","L929 cell line; 25μM, second assay",1.6159
same,"OD490 values, Well 1","L929 cell line; 25μM, second assay",1.6525
same,"OD490 values, Well 2","L929 cell line; 25μM, second assay",1.5652
same,"OD490 values, Well 3","L929 cell line; 25μM, second assay",1.6301
same,"OD490 values, Mean","L929 cell line; 25μM, third assay",1.4383
same,"OD490 values, Well 1","L929 cell line; 25μM, third assay",1.5307
same,"OD490 values, Well 2","L929 cell line; 25μM, third assay",1.3321
same,"OD490 values, Well 3","L929 cell line; 25μM, third assay",1.4521
same,"OD490 values, Mean","L929 cell line; 50μM, first assay",1.2064
same,"OD490 values, Well 1","L929 cell line; 50μM, first assay",1.2251
same,"OD490 values, Well 2","L929 cell line; 50μM, first assay",1.1315
same,"OD490 values, Well 3","L929 cell line; 50μM, first assay",1.2627
same,"OD490 values, Mean","L929 cell line; 50μM, second assay",1.4454
same,"OD490 values, Well 1","L929 cell line; 50μM, second assay",1.4685
same,"OD490 values, Well 2","L929 cell line; 50μM, second assay",1.3855
same,"OD490 values, Well 3","L929 cell line; 50μM, second assay",1.4822
same,"OD490 values, Mean","L929 cell line; 50μM, third assay",1.3084
same,"OD490 values, Well 1","L929 cell line; 50μM, third assay",1.3124
same,"OD490 values, Well 2","L929 cell line; 50μM, third assay",1.3165
same,"OD490 values, Well 3","L929 cell line; 50μM, third assay",1.2962
same,"OD490 values, Mean","L929 cell line; 100μM, first assay",1.1038
same,"OD490 values, Well 1","L929 cell line; 100μM, first assay",1.1234
same,"OD490 values, Well 2","L929 cell line; 100μM, first assay",1.0461
same,"OD490 values, Well 3","L929 cell line; 100μM, first assay",1.1419
same,"OD490 values, Mean","L929 cell line; 100μM, second assay",1.2865
same,"OD490 values, Well 1","L929 cell line; 100μM, second assay",1.2022
same,"OD490 values, Well 2","L929 cell line; 100μM, second assay",1.2699
same,"OD490 values, Well 3","L929 cell line; 100μM, second assay",1.3874
same,"OD490 values, Mean","L929 cell line; 100μM, third assay",1.3217
same,"OD490 values, Well 1","L929 cell line; 100μM, third assay",1.4554
same,"OD490 values, Well 2","L929 cell line; 100μM, third assay",1.2165
same,"OD490 values, Well 3","L929 cell line; 100μM, third assay",1.2933
same,IC50,"L929 cell line; MTS assay, 24 h exposure, ordinary fibroblast, not cancer cells",125 µM
